According to US9624215B2, “Amine derivative or salt thereof” (TOYAMA CHEMICAL CO., LTD., priority 2012, dated 2017):

system: normal human neonatal foreskin epidermal keratinocytes (NHEK-F); experiment: Cell proliferation inhibition test; assay type: cell-based; details: Keratinocyte, 72 h, NHEK-F cells, three days incubation, ATPlite or CellTiterGlo, read-out: IC50 (concentration of the compound at which the cell count is reduced by 50%)
In short: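 IC50 is the compound level halving cell count relative to untreated wells, with counts from ATP-based luminescence (ATPlite or CellTiterGlo). Readout followed 3 days of compound exposure of overnight-attached neonatal foreskin keratinocytes (2×10^3/well, Humedia-EG2 medium).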

| Structure (SMILES) | IC50 [nM] |
| --- | --- |
| O=C(O)c1cc(C2CC2)cnc1Nc1ccc2c(c1)CCCN2c1ccccc1 [Example 181, 5-cyclopropyl-2-((1-phenyl-1,2,3,4-tetrahydroquinolin-6-yl)amino)nicotinic acid] | ≤ 10 |
| Cn1ccc2cc(Nc3ncc(C4CC4)cc3C(=O)O)cc(-c3ccccn3)c21 [Example 500, 5-cyclopropyl-2-((1-methyl-7-(pyridin-2-yl)-1H-indol-5-yl)amino)nicotinic acid] | 10 to 100 |
| COCCCc1cc(Nc2ncc(C3CC3)cc2C(=O)O)cc2ccn(CC(C)C)c12 [Example 608, 5-cyclopropyl-2-((7-(3-methoxypropyl)-1-(2-methylpropyl)-1H-indol-5-yl)amino)nicotinic acid] | ≤ 10 |
| Cc1cccc(-c2cc(Nc3ncc(C4CC4)cc3C(=O)O)cc3ccn(C)c23)c1 [Example 477, 5-cyclopropyl-2-((1-methyl-7-(m-tolyl)-1H-indol-5-yl)amino)nicotinic acid] | ≤ 10 |
| COc1ccc(-c2cc(Nc3ncc(C4CC4)cc3C(=O)O)cc3ccn(C)c23)cc1 [Example 487, 5-cyclopropyl-2-((7-(4-methoxyphenyl)-1-methyl-1H-indol-5-yl)amino)nicotinic acid] | ≤ 10 |
| CCCn1ccc2cc(Nc3ncc(C4CC4)cc3C(=O)O)ccc21 [Example 636, 5-cyclopropyl-2-((1-propyl-1H-indol-5-yl)amino)nicotinic acid] | 10 to 100 |
| CC(C)Cn1ncc2cc(Nc3ncc(C4CC4)cc3C(=O)O)ccc21 [Example 541, 5-cyclopropyl-2-((1-isobutyl-1H-indazol-5-yl)amino)nicotinic acid] | 10 to 100 |
| O=C(O)c1cc(C2CC2)cnc1Nc1c(F)cc2c(ccn2Cc2ccccc2)c1F [Example 554, 2-((1-benzyl-4,6-difluoro-1H-indol-5-yl)amino)-5-cyclopropylnicotinic acid] | ≤ 10 |
| COC/C=C/c1cccc(Cn2ccc3cc(Nc4ncc(C5CC5)cc4C(=O)O)ccc32)c1 [Example 508, (E)-5-cyclopropyl-2-((1-(3-(3-methoxyprop-1-en-1-yl)benzyl)-1H-indol-5-yl)amino)nicotinic acid] | ≤ 10 |
| O=C(O)c1cc(-c2ccccc2)ccc1Nc1ccc2c(ccn2Cc2ccccc2)c1 [Example 359, 4-((1-Benzyl-1H-indol-5-yl)amino)-[1,1′-biphenyl]-3-carboxylic acid] | 10 to 100 |
| O=C(O)c1cc(C2CC2)cnc1Nc1ccc2c(ccn2-c2cccc(F)c2)c1 [Example 231, 5-cyclopropyl-2-((1-(3-fluorophenyl)-1H-indol-5-yl)amino)nicotinic acid] | ≤ 10 |
| O=C(O)c1cc(Cl)ccc1Nc1ccc2c(ccn2-c2cnccn2)c1 [Example 313, 5-chloro-2-((1-(pyrazin-2-yl)-1H-indol-5-yl)amino)benzoic acid] | 100 to 1000 |
| COc1cccc(-c2cc(Nc3ncc(C4CC4)cc3C(=O)O)cc3ccn(C)c23)c1 [Example 486, 5-cyclopropyl-2-((7-(3-methoxyphenyl)-1-methyl-1H-indol-5-yl)amino)nicotinic acid] | ≤ 10 |
| COc1ccc(Cn2ccc3cc(Nc4ncc(C5CC5)cc4C(=O)O)ccc32)cc1 [Example 623, 5-cyclopropyl-2-((1-(4-methoxybenzyl)-1H-indol-5-yl)amino)nicotinic acid] | 10 to 100 |
| CCCCCCCn1ccc2cc(Nc3ncc(C4CC4)cc3C(=O)O)ccc21 [Example 640, 5-cyclopropyl-2-((1-heptyl-1H-indol-5-yl)amino)nicotinic acid] | 10 to 100 |
| Cn1cc(-c2ccccc2)c2ccc(Nc3ncc(C4CC4)cc3C(=O)O)cc21 [Example 41, 5-cyclopropyl-2-((1-methyl-3-phenyl-1H-indol-6-yl)amino)nicotinic acid] | 10 to 100 |
| CSc1nccc(-n2ccc3cc(Nc4ccc(Cl)cc4C(=O)O)ccc32)n1 [Example 319, 5-chloro-2-((1-(2-(methylthio)pyrimidin-4-yl)-1H-indol-5-yl)amino)benzoic acid] | 10 to 100 |
| CC(C)Cn1c(CO)cc2cc(Nc3ncc(C4CC4)cc3C(=O)O)ccc21 [Example 175, 5-cyclopropyl-2-((2-(hydroxymethyl)-1-isobutyl-1H-indol-5-yl)amino)nicotinic acid] | 100 to 1000 |
| O=C(O)c1cc(C2CC2)cnc1Nc1ccc2c(ccn2Cc2ccc(C(F)(F)F)cc2)c1 [Example 451, 5-cyclopropyl-2-((1-(4-(trifluoromethyl)benzyl)-1H-indol-5-yl)amino)nicotinic acid] | 10 to 100 |
| O=C(O)c1cc(C2CC2)cnc1Nc1ccc2c(c1)CCCN2Cc1ccccc1 [Example 183, 2-((1-benzyl-1,2,3,4-tetrahydroquinolin-6-yl)amino)-5-cyclopropylnicotinic acid] | 10 to 100 |
| Cn1ccc2cc(Nc3ncc(C4CC4)cc3C(=O)O)cc(-c3cccc(OC(F)(F)F)c3)c21 [Example 492, 5-cyclopropyl-2-((1-methyl-7-(3-(trifluoromethoxy)phenyl)-1H-indol-5-yl)amino)nicotinic acid] | ≤ 10 |
| O=C(O)c1cc(C2CC2)cnc1Nc1ccc2c(ccn2Cc2ccccc2Cl)c1 [Example 459, 2-((1-(2-chlorobenzyl)-1H-indol-5-yl)amino)-5-cyclopropylnicotinic acid] | ≤ 10 |

| Structure (SMILES) | IC50 [nM] |
| --- | --- |
| CC(C)(C)c1cc2cc(Nc3ncc(C4CC4)cc3C(=O)O)ccc2[nH]1 [Example 389, 2-((2-(tert-butyl)-1H-indol-5-yl)amino)-5-cyclopropylnicotinic acid] | 100 to 1000 |
| CC(C)c1cnc(Nc2ccc3c(ccn3Cc3ccccc3)c2)c(C(=O)O)c1 [Example 379, 2-((1-benzyl-1H-indol-5-yl)amino)-5-isopropylnicotinic acid] | 10 to 100 |
| CCOCCc1cc(Nc2ncc(C3CC3)cc2C(=O)O)cc2ccn(C)c12 [Example 605, 5-cyclopropyl-2-((7-(2-ethoxyethyl)-1-methyl-1H-indol-5-yl)amino)nicotinic acid] | 10 to 100 |
| O=C(O)c1cc(C2CC2)cnc1Nc1ccc2c(c1)cc(-c1ccccc1)n2Cc1ccccc1 [Example 387, 2-((1-benzyl-2-phenyl-1H-indol-5-yl)amino)-5-cyclopropylnicotinic acid] | 10 to 100 |
| Cc1ccc(-n2ccc3cc(Nc4ccc(Cl)cc4C(=O)O)ccc32)nn1 [Example 100, 5-chloro-2-((1-(6-methylpyridazin-3-yl)-1H-indol-5-yl)amino)benzoic acid] | 100 to 1000 |
| O=C(O)c1cc(C2CC2)cnc1Nc1cnc2c(ccn2CC2CCCCC2)c1 [Example 549] | ≤ 10 |
| COC(=O)c1cc(C2CC2)cnc1Nc1ccc2c(c1)c(-c1cccc(C#N)c1)cn2C [Example 630] | 100 to 1000 |
| Cc1cc(C)cc(Cn2ccc3cc(Nc4ncc(C5CC5)cc4C(=O)O)ccc32)c1 [Example 498, 5-cyclopropyl-2-((1-(3,5-dimethylbenzyl)-1H-indol-5-yl)amino)nicotinic acid] | ≤ 10 |
| O=C(O)c1cc(C2CC2)cnc1Nc1ccc2c(c1)OCC(=O)N2c1ccccc1 [Example 399, 5-cyclopropyl-2-((3-oxo-4-phenyl-3,4-dihydro-2H-benzo[b][1,4]oxazin-7-yl)amino)nicotinic acid] | 100 to 1000 |
| O=C(O)c1cc(C2CC2)cnc1Nc1ccc2c(ccn2Cc2cccc(OC(F)(F)F)c2)c1 [Example 496, 5-cyclopropyl-2-((1-(3-(trifluoromethoxy)benzyl)-1H-indol-5-yl)amino)nicotinic acid] | 10 to 100 |
| O=C(O)c1cc(C(F)(F)F)cnc1Nc1ccc2c(ccn2Cc2ccccc2)c1 [Example 116, 2-((1-benzyl-1H-indol-5-yl)amino)-5-(trifluoromethyl)nicotinic acid] | ≤ 10 |
| O=C(O)c1cc(C2CC2)cnc1Nc1cccc2c1ccn2CC1CC1 [Example 437, 5-cyclopropyl-2-((1-(cyclopropylmethyl)-1H-indol-4-yl)amino)nicotinic acid] | 10 to 100 |
| COCCNc1cccc(Cn2ccc3cc(Nc4ncc(C5CC5)cc4C(=O)O)ccc32)c1 [Example 510, 5-cyclopropyl-2-((1-(3-((2-methoxyethyl)amino)benzyl)-1H-indol-5-yl)amino)nicotinic acid] | ≤ 10 |
| CCn1c(C(C)(C)C)cc2cc(Nc3ncc(C4CC4)cc3C(=O)O)ccc21 [Example 158, 2-((2-(tert-butyl)-1-ethyl-1H-indol-5-yl)amino)-5-cyclopropylnicotinic acid] | 10 to 100 |
| O=C(O)c1cc(Cl)ccc1Nc1ccc2c(ccn2Cc2cccc(OCc3ccccn3)c2)c1 [Example 19, 5-chloro-2-((1-(3-(pyridin-2-ylmethoxy)benzyl)-1H-indol-5-yl)amino)benzoic acid] | ≤ 10 |
| Cn1ccc2cc(Nc3ncc(C4CC4)cc3C(=O)O)cc(C3=CCOCC3)c21 [Example 471, 5-cyclopropyl-2-((7-(3,6-dihydro-2H-pyran-4-yl)-1-methyl-1H-indol-5-yl)amino)nicotinic acid] | ≤ 10 |
| Cn1cc(C2CCCCC2)c2cc(Nc3ncc(C4CC4)cc3C(=O)O)ccc21 [Example 612, 2-((3-cyclohexyl-1-methyl-1H-indol-5-yl)amino)-5-cyclopropylnicotinic acid] | 10 to 100 |
| CC(C)Cn1ccc2ccc(Nc3ncc(C4CC4)cc3C(=O)O)cc21 [Example 521, 5-cyclopropyl-2-((1-isobutyl-1H-indol-6-yl)amino)nicotinic acid] | ≤ 10 |
| Cc1ccc(-c2cn(C)c3ccc(Nc4ncc(C5CC5)cc4C(=O)O)cc23)cc1 [Example 571, 5-cyclopropyl-2-((1-methyl-3-(4-methylphenyl)-1H-indol-5-yl)amino)nicotinic acid] | 10 to 100 |
| O=C(O)c1cc(Br)cnc1Nc1ccc2c(ccn2Cc2cccc(F)c2)c1 [Example 627, 5-bromo-2-((1-(3-fluorobenzyl)-1H-indol-5-yl)amino)nicotinic acid] | 10 to 100 |
| Cn1cc(-c2cccc(F)c2)c2cc(Nc3ncc(C4CC4)cc3C(=O)O)ccc21 [Example 559, 5-Cyclopropyl-2-((3-(3-fluorophenyl)-1-methyl-1H-indol-5-yl)amino)nicotinic acid] | 10 to 100 |
